# How the values were obtained:
# [1] = molecular target: T1, recombinant human ALK5 (TGF-βR1) protein (Homo sapiens, UniProt P36897); assay: Biochemical ALK5 (TGF-βR1) assay to measure pKi (LANCE Ultra ULight kinase assay); conditions: apparent pKi from pIC50 by Cheng-Prusoff, read-out: ALK5 pKi (converted)
# T1 construct: purchased Life Technologies PR9075A
# T1 sequence (P36897 34-503): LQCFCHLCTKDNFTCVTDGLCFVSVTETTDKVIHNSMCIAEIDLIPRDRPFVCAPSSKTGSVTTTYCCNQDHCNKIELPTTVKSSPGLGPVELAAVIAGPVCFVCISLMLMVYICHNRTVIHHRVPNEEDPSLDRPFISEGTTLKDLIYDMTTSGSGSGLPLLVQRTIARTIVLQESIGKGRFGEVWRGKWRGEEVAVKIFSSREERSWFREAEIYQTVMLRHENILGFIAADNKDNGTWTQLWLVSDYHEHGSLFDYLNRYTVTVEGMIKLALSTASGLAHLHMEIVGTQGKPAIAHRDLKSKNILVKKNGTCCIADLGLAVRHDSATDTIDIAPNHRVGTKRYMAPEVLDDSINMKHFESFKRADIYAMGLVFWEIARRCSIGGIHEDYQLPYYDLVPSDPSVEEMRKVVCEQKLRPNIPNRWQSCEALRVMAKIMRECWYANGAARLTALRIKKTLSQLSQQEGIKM
# How it was run: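 Compounds (10 μM to 25 pM) were preincubated 60 min at room temperature with enzyme, then reactions were started with ATP (125 μM stock, 5× final) and run 60 min at 37 °C. EDTA-containing Eu-anti-phospho-Topo IIα (Thr1342) antibody stopped the reaction; TR-FRET read at 665 nm. pIC50 from 4-parameter fit, converted to pKi via Cheng-Prusoff.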
# [2] = tested on: TGF-β-stimulated SMAD3 phosphorylation in BEAS-2B cells; assay: Cellular ALK5 potency assay, inhibition of TGF-β stimulated pSMAD3 formation in BEAS-2B cells; assay type: cell-based; conditions: Homo sapiens; inhibition of TGF-β stimulated pSMAD3 formation, BEAS-2B cells; read-out: BEAS2B pIC50 (converted)
# How it was run: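 BEAS-2B human lung epithelial cells, seeded overnight, were pre-treated with compound in HBSS/25 mM HEPES/1% BSA for 1 h at 37 °C, then stimulated with TGF-β (final 10 ng/mL) for 30 min. Lysates were assayed for pSMAD3 by AlphaLISA; pIC50 came from dose-dependent signal change versus TGF-β-stimulated untreated cells.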
Ki [1] [nM],Compound,IC50 [2] [nM]
0.0398 to 0.316,"Cc1cccc(-c2n[nH]cc2-c2ccc3ncc(-c4coc(CCN5CCNCC5)n4)cc3n2)n1 [Compound 697, 4-[6-[3-(6-methyl-2-pyridyl)-1H-pyrazol-4-yl]-1,5-naphthyridin-3-yl]-2-(2-piperazin-1-ylethyl)oxazole]",200 to 1260
0.0398 to 0.316,"Cc1cccc(-c2n[nH]cc2-c2ccc3ncc(NCC(C)(C)N4CCN(C(C)C)CC4)cc3n2)n1 [Compound 698, N-[2-(4-isopropylpiperazin-1-yl)-2-methyl-propyl]-6-[3-(6-methyl-2-pyridyl)-1H-pyrazol-4-yl]-1,5-naphthyridin-3-amine]",25.1 to 158
< 0.0316,"Cc1cccc(-c2[nH]cnc2-c2ccc3ncc(-c4ccc5c(c4)CNC5)cc3c2)n1 [Compound 699, 3-isoindolin-5-yl-6-[5-(6-methyl-2-pyridyl)-1H-imidazol-4-yl]quinoline]",< 20
0.0398 to 0.316,"Cc1cccc(-c2[nH]cnc2-c2ccc3ncc(C(=O)OCC4CNC4)cc3c2)n1 [Compound 700, azetidin-3-ylmethyl 6-[5-(6-methyl-2-pyridyl)-1H-imidazol-4-yl]quinoline-3-carboxylate]",25.1 to 158
0.0398 to 0.316,"Cc1cccc(-c2[nH]cnc2-c2ccc3ncc(N4CCC(C(=O)OC5CCNCC5)CC4)cc3c2)n1 [Compound 701, piperidin-4-yl 1-(6-(5-(6-methylpyridin-2-yl)-1H-imidazol-4-yl)quinolin-3-yl)piperidine-4-carboxylate]",200 to 1260
0.0398 to 0.316,"Cc1cccc(-c2[nH]cnc2-c2ccc3ncc(N4CCC(C(=O)O[C@@H]5CCN(C)C5)CC4)cc3c2)n1 [Compound 702, [(3R)-1-methylpyrrolidin-3-yl] 1-[6-[5-(6-methyl-2-pyridyl)-1H-imidazol-4-yl]-3-quinolyl]piperidine-4-carboxylate]",25.1 to 158
0.0398 to 0.316,"Cc1cccc(-c2[nH]cnc2-c2ccc3ncc(NCCN4CCC5(CCNCC5)C4)cc3c2)n1 [Compound 703, N-[2-(2,8-diazaspiro[4.5]decan-2-yl)ethyl]-6-[5-(6-methyl-2-pyridyl)-1H-imidazol-4-yl]quinolin-3-amine]",25.1 to 158
0.0398 to 0.316,"Cc1cccc(-c2[nH]cnc2-c2ccc3ncc(-c4cncc(C(=O)O[C@H]5CCN(C)C5)c4)cc3c2)n1 [Compound 704, [(3S)-1-methylpyrrolidin-3-yl] 5-[6-[5-(6-methyl-2-pyridyl)-1H-imidazol-4-yl]-3-quinolyl]pyridine-3-carboxylate]",25.1 to 158
0.0398 to 0.316,"Cc1cccc(-c2[nH]cnc2-c2ccc3ncc(N4CCC(C(=O)OC5CNC5)CC4)cc3c2)n1 [Compound 705, azetidin-3-yl 1-[6-[5-(6-methyl-2-pyridyl)-1H-imidazol-4-yl]-3-quinolyl]piperidine-4-carboxylate]",200 to 1260
0.0398 to 0.316,"COC(=O)[C@H]1CCCCN1CCNc1cnc2ccc(-c3nc[nH]c3-c3cccc(C)n3)cc2c1 [Compound 706, methyl (2R)-1-[2-[[6-[5-(6-methyl-2-pyridyl)-1H-imidazol-4-yl]-3-quinolyl]amino]ethyl]piperidine-2-carboxylate]",25.1 to 158
0.0398 to 0.316,"Cc1cccc(-c2[nH]cnc2-c2ccc3ncc(-c4cccc(C(=O)O[C@H]5CCNC5)c4)cc3c2)n1 [Compound 707, [(3S)-pyrrolidin-3-yl] 3-[6-[5-(6-methyl-2-pyridyl)-1H-imidazol-4-yl]-3-quinolyl]benzoate]",25.1 to 158

# Second part, the compound before the results:
Compound,Ki [1] [nM],IC50 [2] [nM]
"Cc1cccc(-c2[nH]cnc2-c2ccc3ncc(NC[C@@H]4CCCN4)cc3c2)n1 [Compound 679, 6-[5-(6-methyl-2-pyridyl)-1H-imidazol-4-yl]-N-[[(2S)-pyrrolidin-2-yl]methyl]quinolin-3-amine]",0.0398 to 0.316,200 to 1260
"Cc1cccc(-c2n[nH]cc2-c2ccc3ncc(-c4cn(-c5ccccn5)nn4)cc3n2)n1 [Compound 680, 2-[3-(6-methyl-2-pyridyl)-1H-pyrazol-4-yl]-7-[1-(2-pyridyl)triazol-4-yl]-1,5-naphthyridine]",0.398 to 3.16,200 to 1260
"Cc1cccc(-c2n[nH]cc2-c2ccc3ncc(-c4cnc5n4CCN5)cc3n2)n1 [Compound 681, 7-(6,7-dihydro-5H-imidazo[1,2-a]imidazol-3-yl)-2-[3-(6-methyl-2-pyridyl)-1H-pyrazol-4-yl]-1,5-naphthyridine]",< 0.0316,25.1 to 158
"Cc1cccc(-c2[nH]cnc2-c2ccc3ncc(N4CCN[C@H](C(=O)O)C4)cc3c2)n1 [Compound 682, (2S)-4-[6-[5-(6-methyl-2-pyridyl)-1H-imidazol-4-yl]-3-quinolyl]piperazine-2-carboxylic acid]",0.398 to 3.16,200 to 1260
"Cc1cccc(-c2nc3ccccn3c2-c2ccc3ncc(N4CCC(N(C)C)CC4)cc3n2)n1 [Compound 683, N,N-dimethyl-1-[6-[2-(6-methyl-2-pyridyl)imidazo[1,2-a]pyridin-3-yl]-1,5-naphthyridin-3-yl]piperidin-4-amine]",0.0398 to 0.316,25.1 to 158
"Cc1cccc(-c2n[nH]cc2-c2ccc3ncc(CNC(C(=O)OC4CCCC4)c4ccccc4)cc3n2)n1 (centres unmarked) [Compound 684, cyclopentyl 2-[[6-[3-(6-methyl-2-pyridyl)-1H-pyrazol-4-yl]-1,5-naphthyridin-3-yl]methylamino]-2-phenyl-acetate]",3.98 to 31.6,200 to 1260
"Cc1cccc(-c2n[nH]cc2-c2ccc3ncc(C4=CCC(N(C)C)CC4)cc3n2)n1 (centres unmarked) [Compound 685, N,N-dimethyl-4-[6-[3-(6-methyl-2-pyridyl)-1H-pyrazol-4-yl]-1,5-naphthyridin-3-yl]cyclohex-3-en-1-amine]",0.0398 to 0.316,25.1 to 158
"Cc1cccc(-c2[nH]cnc2-c2ccc3ncc(-c4cccc(NC5CCNCC5)c4)cc3c2)n1 [Compound 686, N-[3-[6-[5-(6-methyl-2-pyridyl)-1H-imidazol-4-yl]-3-quinolyl]phenyl]piperidin-4-amine]",< 0.0316,25.1 to 158
"Cc1nc(-c2n[nH]cc2-c2ccc3ncc(N4CCN(C(C)C)CC4)cc3n2)ccc1F [Compound 687, 2-[3-(5-fluoro-6-methyl-2-pyridyl)-1H-pyrazol-4-yl]-7-(4-isopropylpiperazin-1-yl)-1,5-naphthyridine]",< 0.0316,25.1 to 158
"Cc1cccc(-c2[nH]cnc2-c2ccc3ncc(N4CCN(C)C(CC(=O)O)C4)cc3c2)n1 (centres unmarked) [Compound 688, 2-[1-methyl-4-[6-[5-(6-methyl-2-pyridyl)-1H-imidazol-4-yl]-3-quinolyl]piperazin-2-yl]acetic acid]",0.0398 to 0.316,1580 to 10000
"Cc1cccc(-c2[nH]cnc2-c2ccc3ncc(N4CCNC(CC(=O)OC5CCNCC5)C4)cc3c2)n1 (centres unmarked) [Compound 689, 4-piperidyl 2-[4-[6-[5-(6-methyl-2-pyridyl)-1H-imidazol-4-yl]-3-quinolyl]piperazin-2-yl]acetate]",0.398 to 3.16,200 to 1260
"Cc1cccc(-c2[nH]cnc2-c2ccc3ncc(N4CCNC(CC(=O)OCC(C)C)C4)cc3c2)n1 (centres unmarked) [Compound 690, isobutyl 2-[4-[6-[5-(6-methyl-2-pyridyl)-1H-imidazol-4-yl]-3-quinolyl]piperazin-2-yl]acetate]",0.0398 to 0.316,25.1 to 158
"CC(=O)N[C@H]1CC=C(c2cnc3ccc(-c4nc[nH]c4-c4cccc(C)n4)cc3c2)CC1 [Compound 691, N-[(1R)-4-[6-[5-(6-methyl-2-pyridyl)-1H-imidazol-4-yl]-3-quinolyl]cyclohex-3-en-1-yl]acetamide]",< 0.0316,< 20
"Cc1cccc(-c2n[nH]cc2-c2ccc3ncc(-c4ccn(C)n4)cc3n2)n1 [Compound 692, 7-(1-methylpyrazol-3-yl)-2-[3-(6-methyl-2-pyridyl)-1H-pyrazol-4-yl]-1,5-naphthyridine]",< 0.0316,< 20
"Cc1cccc(-c2nc3ccccn3c2-c2ccc3ncc(-c4cc5n(n4)CCNC5)cc3n2)n1 [Compound 693, 2-[2-(6-methyl-2-pyridyl)imidazo[1,2-a]pyridin-3-yl]-7-(4,5,6,7-tetrahydropyrazolo[1,5-a]pyrazin-2-yl)-1,5-naphthyridine]",< 0.0316,< 20
"Cc1cccc(-c2n[nH]cc2-c2ccc3ncc(O)cc3n2)n1 [Compound 694, 6-[3-(6-methyl-2-pyridyl)-1H-pyrazol-4-yl]-1,5-naphthyridin-3-ol]",0.0398 to 0.316,< 20
"Cc1cccc(-c2[nH]cnc2-c2ccc3ncc(Nc4ccc(N5CCN(C(C)C)CC5)cn4)cc3n2)n1 [Compound 695, N-[5-(4-isopropylpiperazin-1-yl)-2-pyridyl]-6-[5-(6-methyl-2-pyridyl)-1H-imidazol-4-yl]-1,5-naphthyridin-3-amine]",0.0398 to 0.316,25.1 to 158
